Test results taken from paper PMC9501548, “Synthesis of Potential Antiviral Agents for SARS-CoV-2 Using Molecular Hybridization Approach” (Molecules, 2022).
Several values for one entry are separate records, joined by “and”; a condition that tells them apart may be missing. Identical values can stand only once. Like-named read-outs stand apart in the source and are kept apart here.

Tests used:
[1] = tested on: SARS-CoV-2 (hCoV-19/Egypt/NRC-03/2020); experiment: Anti-SARS-CoV-2 IC50 determination in Vero-E6 cells (inhibition of virus-induced cytopathic effect, crystal violet); format: cell-based; conditions: for IC50: Severe acute respiratory syndrome coronavirus 2, Vero C1008, SARS-CoV-2 in Vero-E6 cells, 72 h, CPE reduction; for SI: selectivity index, ratio of CC50 relative to IC50
[2] = in vitro; conditions: Chlorocebus aethiops (African green monkey)
[3] = tested on: SARS-CoV-2 (hCoV-19/Egypt/NRC-03/2020); parameters: method as in PMID 34775204; conditions: standard reference, cited from earlier work
[4] = tested on: VERO-E6 cells; parameters: method as in PMID 34775204; conditions: standard reference; cited from earlier work

For Cc1ccc2nc(C(F)(F)F)cc(OCCCCCCn3cc(C=C4SC(=S)N(CCc5ccccc5)C4=O)c4ccccc43)c2c1 (mixture of isomers) [9k, (E/Z)-5-((1-(6-((6-Methyl-2-(trifluoromethyl)quinolin-4-yl)oxy)hexyl)-1H-indol-3-yl)methylene)-3-phenethyl-2-thioxothiazolidin-4-one], the IC50 [1] was 160 µg/mL and 238 µM, the SI [1] was 1.3 and the melting point was 148 to 150 °C. The CC50 at 24 h [2] was 201 µg/mL and 299 µM.

Molecule O=C1C(=Cc2cn(CCCCCCOc3cc(C(F)(F)F)nc4ccc(F)cc34)c3ccccc23)SC(=S)N1CCc1ccccc1 (mixture of isomers) [9i, (E/Z)-5-((1-(6-((6-Fluoro-2-(trifluoromethyl)quinolin-4-yl)oxy)hexyl)-1H-indol-3-yl)methylene)-3-phenethyl-2-thioxothiazolidin-4-one] has a melting point of 185 to 187 °C and a CC50 at 24 h [2] of 262 µg/mL.

Molecule O=C1C(=Cc2cn(CCCOc3cc(C(F)(F)F)nc4ccc(Cl)cc34)c3ccccc23)SC(=S)N1CCc1ccccc1 (mixture of isomers) [9b, (E/Z)-5-((1-(3-((6-Chloro-2-(trifluoromethyl)quinolin-4-yl)oxy)propyl)-1H-indol-3-yl)methylene)-3-phenethyl-2-thioxothiazolidin-4-one] has a melting point of 176 to 179 °C and a CC50 at 24 h [2] of 227 µg/mL.

Cc1ccc2nc(C(F)(F)F)cc(OCCCCn3cc(C=C4SC(=S)N(CCc5ccccc5)C4=O)c4ccccc43)c2c1 (mixture of isomers) [9g, (E/Z)-5-((1-(4-((6-Methyl-2-(trifluoromethyl)quinolin-4-yl)oxy)butyl)-1H-indol-3-yl)methylene)-3-phenethyl-2-thioxothiazolidin-4-one] showed a melting point of 175 to 177 °C and a CC50 at 24 h [2] of 591 µg/mL.

In the case of CCN(CCO)CCCC(C)Nc1ccnc2cc(Cl)ccc12 (stereo not shown) [Hydroxychloroquine], the IC50 ([3]; anti-SARS-CoV-2) is listed as 29.2 µM, the SI ([3]; ratio of CC50 relative to IC50) is listed as 12.2 and the CC50 [4] is listed as 356 µM.

With O=C1C(=Cc2cn(CCCCOc3cc(C(F)(F)F)nc4ccc(F)cc34)c3ccccc23)SC(=S)N1CCc1ccccc1 (mixture of isomers) [9e, (E/Z)-5-((1-(4-((6-Fluoro-2-(trifluoromethyl)quinolin-4-yl)oxy)butyl)-1H-indol-3-yl)methylene)-3-phenethyl-2-thioxothiazolidin-4-one] the IC50 [1] was 276 µg/mL and 424 µM, the SI [1] was 1.1 and the melting point was 160 to 162 °C. The CC50 at 24 h [2] was 305 µg/mL and 469 µM.

In the case of O=C1C(=Cc2cn(CCCCOc3cc(C(F)(F)F)nc4ccccc34)c3ccccc23)SC(=S)N1CCc1ccccc1 (mixture of isomers) [9d, (E/Z)-3-Phenethyl-2-thioxo-5-((1-(4-((2-(trifluoromethyl)quinolin-4-yl)oxy)butyl)-1H-indol-3-yl)methylene)thiazolidin-4-one], the IC50 [1] is reported as 257 µg/mL and 407 µM, the SI [1] is reported as 1.1 and the melting point is reported as 157 to 159 °C. For the same molecule, the CC50 at 24 h [2] was 294 µg/mL and 465 µM.

In the case of Cc1ccc2nc(C(F)(F)F)cc(OC/C=C/Cn3cc(C=C4SC(=S)N(CCc5ccccc5)C4=O)c4ccccc43)c2c1 (mixture of isomers) [10b, (E/Z)-5-((1-((E)-4-((6-Methyl-2-(trifluoromethyl)quinolin-4-yl)oxy)but-2-en-1-yl)-1H-indol-3-yl)methylene)-3-phenethyl-2-thioxothiazolidin-4-one], the melting point is reported as 168 to 170 °C and the CC50 at 24 h [2] is reported as 290 µg/mL.

In the case of Cc1ccc2nc(C(F)(F)F)cc(OCCCn3cc(C=C4SC(=S)N(CCc5ccccc5)C4=O)c4ccccc43)c2c1 (mixture of isomers) [9c, (E/Z)-5-((1-(3-((6-Methyl-2-(trifluoromethyl)quinolin-4-yl)oxy)propyl)-1H-indol-3-yl)methylene)-3-phenethyl-2-thioxothiazolidin-4-one], the melting point is reported as 182 to 184 °C and the CC50 at 24 h [2] is reported as 310 µg/mL.

Molecule O=C1C(=Cc2cn(C/C=C/COc3cc(C(F)(F)F)nc4ccccc34)c3ccccc23)SC(=S)N1CCc1ccccc1 (mixture of isomers) [10a, (E/Z)-3-Phenethyl-2-thioxo-5-((1-((E)-4-((2-(trifluoromethyl)quinolin-4-yl)oxy)but-2-en-1-yl)-1H-indol-3-yl)methylene)thiazolidin-4-one] has a melting point of 179 to 181 °C and a CC50 at 24 h [2] of 370 µg/mL.

For O=C1C(=Cc2cn(CCCOc3cc(C(F)(F)F)nc4ccccc34)c3ccccc23)SC(=S)N1CCc1ccccc1 (mixture of isomers) [9a, (E/Z)-3-Phenethyl-2-thioxo-5-((1-(3-((2-(trifluoromethyl)quinolin-4-yl)oxy)propyl)-1H-indol-3-yl)methylene)thiazolidin-4-one], the melting point was 185 to 187 °C and the CC50 at 24 h [2] was 210 µg/mL.

With O=C1C(=Cc2cn(CCCCCCOc3cc(C(F)(F)F)nc4ccc(Cl)cc34)c3ccccc23)SC(=S)N1CCc1ccccc1 (mixture of isomers) [9j, (E/Z)-5-((1-(6-((6-Chloro-2-(trifluoromethyl)quinolin-4-yl)oxy)hexyl)-1H-indol-3-yl)methylene)-3-phenethyl-2-thioxothiazolidin-4-one] the melting point was 184 to 186 °C and the CC50 at 24 h [2] was 380 µg/mL.

For O=C1C(=Cc2cn(CCCCCCOc3cc(C(F)(F)F)nc4ccccc34)c3ccccc23)SC(=S)N1CCc1ccccc1 (mixture of isomers) [9h, (E/Z)-3-Phenethyl-2-thioxo-5-((1-(6-((2-(trifluoromethyl)quinolin-4-yl)oxy)hexyl)-1H-indol-3-yl)methylene)thiazolidin-4-one], the melting point was 180 to 182 °C and the CC50 at 24 h [2] was 258 µg/mL.

For O=C1C(=Cc2cn(CCCCOc3cc(C(F)(F)F)nc4ccc(Cl)cc34)c3ccccc23)SC(=S)N1CCc1ccccc1 (mixture of isomers) [9f, (E/Z)-5-((1-(4-((6-Chloro-2-(trifluoromethyl)quinolin-4-yl)oxy)butyl)-1H-indol-3-yl)methylene)-3-phenethyl-2-thioxothiazolidin-4-one], the IC50 [1] was 109 µg/mL and 164 µM, the SI [1] was 3.4 and the melting point was 181 to 183 °C. The CC50 at 24 h [2] was 370 µg/mL and 555 µM.
